Measured values: patent US20090081194A1, “COMPOSITIONS AND METHODS FOR REDUCING RISK OF DEVELOPMENT, OR SEVERITY, OF INAPPROPRIATE IMMUNE RESPONSE IN EYES” (priority 2007, published 2009)

Experiments:
[1] = test system: mouse peritoneal neutrophils; assay: Cytokine production (ELISA) by activated mouse peritoneal neutrophils; assay type: cell-based; conditions: 15 hours
Description: In one experiment, mouse peritoneal neutrophils were isolated from C57BL/6 mice that had received intraperitoneal injection of 1% casein solution containing 0.5 mM MgCl2 and 0.99 mM CaCl2 16 hours and 3 hours prior to harvesting in Hank's balanced salt solution (“HBSS”) lavage. Collected cells were centrifuged (2000 rpm, 10 min) and washed twice in HBSS, prior to separation of granulocytes by Percol gradient at 31,500 rpm for 20 min. Cells were washed twice and resuspended in Dubelco's modified eagle's medium (“DMEM”) containing 10% fetal calf serum (Invitrogen, Basel Switzerland). Purity of 98% neutrophils was verified by Diff-Quik stain (VWR, Bridgeport, N.J.). Neutrophils (1×10^5/well) were pre-incubated with 100 ng/ml GM-CSF at 37° C. for 1 hour prior to exposure to compositions of the present invention comprising 0.08-10 μg/ml of inhibitory ODN 2088 (InvivoGen, San Diego, Calif.; sequence disclosed above) or a control composition containing 20 μg/ml of the control ODN 1911 (Operon Qiagen, Valencia, Calif.; having a sequence of […]), or the medium only, for 30 minutes prior to activation with 20 μg/ml of stimulatory ODN 1826 (Operon Qiagen, Valencia, Calif.; having a sequence of […]); 20 μg/ml of endotoxin-free DNA from E. coli K12 (InvivoGen, San Diego, Calif.); killed Staphylococcus aureus strain E2061740 (3×10^5 cfu/ml); 100 ng/ml of Pam3Cys (synthetic lipopeptide (S)-(2,3-bis(palmitoyloxy)-(2RS)-propyl)-N-palmitoyl-(R)-Cys-(S)-Ser-(S)-Lys4-OH, EMC Microcollections, Tubingen, Germany); or 200 ng/ml of LPS (ultra pure lipopolysaccharide from E. coli 0111:B4 strain, InvivoGen, San Diego, Calif.). After 15 hours at 37° C., supernates were collected for ELISA assay (R&D Systems, Minneapolis, Minn.) for pro-inflammatory cytokines macrophage inflammatory protein-2 (“MIP-2”), keratinocyte-derived chemokines (“KC”), IL-6, and TNF-α. […] The production of these pro-inflammatory cytokines was not affected when neutrophils activated by Pam3Cys or LPS were treated with a composition comprising the inhibitory ODN 2088. This not surprising in view of the fact that the inhibitory ODN 2088 inhibits the activation of TLR9 while LPS and Pam3Cys activate TLR4 and TLR2, respectively. Other inhibitors of TLR2 and TLR4 activation should be effective in suppressing corneal infiltrate induced by […], respectively.

[2] = test system: C57BL/6 mouse cornea; assay: Mouse keratitis: neutrophil infiltrate in abraded cornea; assay type: in vivo; conditions: topical on abraded cornea, 24 hours, FIG. 5
Description: In this experiment, 1 μl of test solution containing 20 μg/ml of the synthetic stimulatory ODN 1826, 10 μg/ml of endotoxin-free DNA from E. coli K12, 20 μg/ml of Pam3Cys, or 20 μg/ml LPS, along with a composition of the present invention containing the inhibitory ODN 2088, the control composition containing 20 μg/ml of ODN 1911, or medium only, was applied to a 1 mm^2 abraded area of central C57BL/6 mouse cornea that had been marked by sterile trephine (Miltex, Tuttlingen, Germany) and abraded with an Alger brush II (Alger, PagoVista, Texas). After 24 hours, the corneal infiltrate was determined as the number of neutrophils per corneal section. […] Other inhibitors of TLR2 and TLR4 activation should be effective in suppressing corneal infiltrate induced by Pam3Cys and LPS, respectively.

[3] = test system: C57BL/6 mouse cornea; assay: Corneal epithelium cytokines (ELISA) after stimulatory ODN on abraded mouse cornea; assay type: in vivo; conditions: stimulatory ODN 1826 20 μg/ml with ODN 2088 20 μg/ml, 5 hours; all three cytokines; FIG. 6
Description: In this experiment, 1 μl of test solution containing 20 μg/ml of the synthetic stimulatory ODN 1826, along with a composition of the present invention containing 20 μg/ml of the inhibitory ODN 2088, or a control composition containing 20 μg/ml of the control ODN 1911, or the medium only, was applied to a 1 mm^2 abraded area of central C57BL/6 mouse cornea that had been marked by sterile trephine (Miltex, Tuttlingen, Germany) and abraded with an Alger brush II (Alger, PagoVista, TX). After 5 hours, the corneal epithelium was separated after 20 minutes in 20 mM EDTA at 37° C. and placed into RPMI 1640 medium. Samples were disrupted by sonication for 88 seconds with 40% duty cycle (Vibracell; Sonics and Material, Danbury, Conn.). Cytokines were measured by ELISA assay (R&D Systems, Minneapolis, Minn.) for the pro-inflammatory cytokines MIP-2, KC, and human interferon-inducible protein 10 (“IP-10”).

[4] = molecular target: T1, TLR9 (Homo sapiens, UniProt Q9NR96); conditions: Gursel et al. 2003; Stunz et al. 2002; cited from earlier work
T1 sequence (Q9NR96 26-1032): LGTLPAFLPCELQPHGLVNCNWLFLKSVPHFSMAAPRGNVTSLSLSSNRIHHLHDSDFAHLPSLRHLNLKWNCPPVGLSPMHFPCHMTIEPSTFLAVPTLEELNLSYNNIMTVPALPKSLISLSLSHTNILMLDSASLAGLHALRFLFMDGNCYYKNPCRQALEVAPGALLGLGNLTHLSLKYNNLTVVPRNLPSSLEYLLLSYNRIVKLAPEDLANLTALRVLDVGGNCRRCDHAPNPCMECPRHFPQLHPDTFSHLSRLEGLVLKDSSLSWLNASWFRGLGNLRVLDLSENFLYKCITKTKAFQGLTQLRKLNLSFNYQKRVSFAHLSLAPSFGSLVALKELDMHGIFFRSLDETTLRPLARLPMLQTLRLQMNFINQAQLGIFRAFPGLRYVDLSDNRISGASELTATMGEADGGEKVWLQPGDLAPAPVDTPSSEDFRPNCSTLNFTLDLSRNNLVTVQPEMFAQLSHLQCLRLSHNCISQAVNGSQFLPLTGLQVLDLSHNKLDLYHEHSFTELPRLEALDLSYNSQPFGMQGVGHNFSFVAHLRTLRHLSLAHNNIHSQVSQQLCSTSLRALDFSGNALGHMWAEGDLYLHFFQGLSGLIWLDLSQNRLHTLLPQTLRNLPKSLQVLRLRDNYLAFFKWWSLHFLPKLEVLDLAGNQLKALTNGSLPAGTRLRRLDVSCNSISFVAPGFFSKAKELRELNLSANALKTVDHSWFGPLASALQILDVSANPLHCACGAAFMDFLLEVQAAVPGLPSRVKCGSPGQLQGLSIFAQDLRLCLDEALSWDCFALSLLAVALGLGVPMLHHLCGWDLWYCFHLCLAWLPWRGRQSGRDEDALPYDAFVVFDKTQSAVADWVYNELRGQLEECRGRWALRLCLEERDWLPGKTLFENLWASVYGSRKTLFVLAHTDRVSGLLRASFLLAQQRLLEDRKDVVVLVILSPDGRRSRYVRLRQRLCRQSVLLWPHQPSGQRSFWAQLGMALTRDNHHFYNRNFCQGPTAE

TCCTGGCGGGGAAGT (chemistry not given here) [ODN 2088]
pro-inflammatory cytokine production by neutrophils (MIP-2, KC, IL-6, TNF-α) ([1]; activation with 100 ng/ml Pam3Cys): not affected
pro-inflammatory cytokine production by neutrophils (MIP-2, KC, IL-6, TNF-α) ([1]; activation with 200 ng/ml LPS): not affected
pro-inflammatory cytokine production by neutrophils (MIP-2, KC, IL-6, TNF-α) ([1]; activation with 20 μg/ml endotoxin-free DNA from E. coli K12, ODN 2088 0.08-10 μg/ml, dose dependent, FIGS. 1-4): inhibited pro-inflammatory cytokine production
pro-inflammatory cytokine production by neutrophils (MIP-2, KC, IL-6, TNF-α) ([1]; activation with 20 μg/ml stimulatory ODN 1826, ODN 2088 0.08-10 μg/ml, dose dependent, FIGS. 1-4): inhibited pro-inflammatory cytokine production
pro-inflammatory cytokine production by neutrophils (MIP-2, KC, IL-6, TNF-α) ([1]; activation with killed Staphylococcus aureus (3×10^5 cfu/ml)): nondetectable levels
corneal infiltrate, number of neutrophils per corneal section ([2]; LPS 20 μg/ml): not effective in suppressing corneal infiltrates
corneal infiltrate, number of neutrophils per corneal section ([2]; Pam3Cys 20 μg/ml): not effective in suppressing corneal infiltrates
corneal infiltrate, number of neutrophils per corneal section ([2]; bacterial DNA (E. coli K12) 10 μg/ml): reduced the number of infiltrating neutrophils
corneal infiltrate, number of neutrophils per corneal section ([2]; stimulatory ODN 1826 20 μg/ml): reduced the number of infiltrating neutrophils
corneal cytokine response (MIP-2, KC, IP-10) [3]: reduced cytokine response
colocalization of CpG DNA with TLR9 within endosomal vesicles [4]: block the colocalization
